Tests used:
Nav 1.7 = target: T1, Nav 1.7 (Homo sapiens, UniProt Q15858); details: Nav 1.7-transfected CHO cells; cited from earlier work
T1 construct: host or cells: CHO cells (transfected)

[1] = system: Apteronotus leptorhynchus; assay: Neuro-behavioral assay: EOD amplitude; format: in vivo
Description: Differential recording of the fish's EOD was performed through a pair of stainless-steel electrodes built into the shelter tube (FIG. 1). During the experiment, the open ends of the tube were closed with a course plastic mesh netting to ensure that the fish remained close to the recording electrodes, thereby yielding high-quality recordings. This restraint is minimally invasive, as, particularly during daytime, the fish remain in shelter tubes with open ends for prolonged periods of time, often for several hours. The recorded EOD signal was amplified and digitized following a protocol established previously. To examine the effect of eugenol on EOD frequency and chirping behavior, the following experiments were conducted using 8 fish (FIG. 11): First, the baseline EOD was recorded in the fish's home tank (50 cm×30 cm×30 cm) for 30 min. Then, for the 5-min treatment session, the shelter tube with the fish was transferred to a smaller (experimental) tank (30 cm×20 cm×20 cm) containing either eugenol dissolved in aquarium water at a certain concentration (30 μL/L, 45 μL/L, or 60 μL/L; ‘test condition’) or aquarium water only (‘control condition’). The temperature in the experimental tank was similar to the temperature in the home tank (median difference: ±0.2° C.). Finally, the shelter tube with the fish was returned to the home tank, where recording continued for 180 min. Throughout the 215 min of pre-treatment, treatment, and post-treatment, the recording of the EOD was interrupted only for a few seconds during which the fish was transferred between its home tank and the experimental tank. The order of the four treatment conditions was determined using a randomized complete block design. Each test or control experiment in a given fish was conducted on a different day.

GABAA receptors = details: receptors expressed in Xenopus oocytes; cited from earlier work
[2] = target: T2, GABAA receptor subtype α1β2γ2 (Homo sapiens, UniProt P14867+P18507+P47870); details: human embryonic kidney 293 cells expressing α1β2γ2; cited from earlier work
T2 construct: host or cells: human embryonic kidney 293 cells (heterologous expression)
T2 sequence (P14867 28-456): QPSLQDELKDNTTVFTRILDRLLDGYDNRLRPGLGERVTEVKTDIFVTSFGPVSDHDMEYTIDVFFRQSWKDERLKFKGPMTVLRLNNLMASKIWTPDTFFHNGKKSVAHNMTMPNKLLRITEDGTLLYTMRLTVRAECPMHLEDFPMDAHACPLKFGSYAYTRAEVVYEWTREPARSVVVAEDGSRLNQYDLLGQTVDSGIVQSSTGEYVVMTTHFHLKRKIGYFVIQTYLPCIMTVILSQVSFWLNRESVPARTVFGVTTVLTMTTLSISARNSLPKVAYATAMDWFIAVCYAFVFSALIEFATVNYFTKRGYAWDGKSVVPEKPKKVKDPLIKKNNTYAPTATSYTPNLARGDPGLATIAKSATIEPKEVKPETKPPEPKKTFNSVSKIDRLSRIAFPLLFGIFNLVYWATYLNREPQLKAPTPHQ
T2 sequence (P47870 25-512 limits assumed): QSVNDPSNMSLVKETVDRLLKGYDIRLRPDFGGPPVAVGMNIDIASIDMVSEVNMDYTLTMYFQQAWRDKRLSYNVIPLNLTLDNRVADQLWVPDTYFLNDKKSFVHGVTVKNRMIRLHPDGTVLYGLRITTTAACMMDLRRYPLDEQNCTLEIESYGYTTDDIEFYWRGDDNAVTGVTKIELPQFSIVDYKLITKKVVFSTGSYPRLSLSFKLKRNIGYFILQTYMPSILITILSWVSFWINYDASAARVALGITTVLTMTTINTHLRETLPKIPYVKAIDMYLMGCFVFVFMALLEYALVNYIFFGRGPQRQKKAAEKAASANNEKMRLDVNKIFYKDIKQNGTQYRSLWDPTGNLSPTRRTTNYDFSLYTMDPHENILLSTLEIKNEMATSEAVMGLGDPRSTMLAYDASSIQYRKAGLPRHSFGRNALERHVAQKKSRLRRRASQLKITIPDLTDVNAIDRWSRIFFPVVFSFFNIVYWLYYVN
T2 sequence (P18507 40-475): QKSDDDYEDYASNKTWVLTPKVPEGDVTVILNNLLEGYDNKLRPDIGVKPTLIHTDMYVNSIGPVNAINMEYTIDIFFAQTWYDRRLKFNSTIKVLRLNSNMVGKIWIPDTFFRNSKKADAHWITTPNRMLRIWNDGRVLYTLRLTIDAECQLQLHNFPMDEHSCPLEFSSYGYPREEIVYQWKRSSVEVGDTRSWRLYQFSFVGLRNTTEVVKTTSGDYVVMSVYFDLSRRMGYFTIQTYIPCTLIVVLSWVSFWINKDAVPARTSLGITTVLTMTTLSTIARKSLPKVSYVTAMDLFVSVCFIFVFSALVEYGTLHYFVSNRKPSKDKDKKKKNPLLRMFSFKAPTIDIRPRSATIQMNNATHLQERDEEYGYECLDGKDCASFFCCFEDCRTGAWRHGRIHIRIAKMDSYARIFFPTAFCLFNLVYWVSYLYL

T1 sequence (Q15858 whole entry): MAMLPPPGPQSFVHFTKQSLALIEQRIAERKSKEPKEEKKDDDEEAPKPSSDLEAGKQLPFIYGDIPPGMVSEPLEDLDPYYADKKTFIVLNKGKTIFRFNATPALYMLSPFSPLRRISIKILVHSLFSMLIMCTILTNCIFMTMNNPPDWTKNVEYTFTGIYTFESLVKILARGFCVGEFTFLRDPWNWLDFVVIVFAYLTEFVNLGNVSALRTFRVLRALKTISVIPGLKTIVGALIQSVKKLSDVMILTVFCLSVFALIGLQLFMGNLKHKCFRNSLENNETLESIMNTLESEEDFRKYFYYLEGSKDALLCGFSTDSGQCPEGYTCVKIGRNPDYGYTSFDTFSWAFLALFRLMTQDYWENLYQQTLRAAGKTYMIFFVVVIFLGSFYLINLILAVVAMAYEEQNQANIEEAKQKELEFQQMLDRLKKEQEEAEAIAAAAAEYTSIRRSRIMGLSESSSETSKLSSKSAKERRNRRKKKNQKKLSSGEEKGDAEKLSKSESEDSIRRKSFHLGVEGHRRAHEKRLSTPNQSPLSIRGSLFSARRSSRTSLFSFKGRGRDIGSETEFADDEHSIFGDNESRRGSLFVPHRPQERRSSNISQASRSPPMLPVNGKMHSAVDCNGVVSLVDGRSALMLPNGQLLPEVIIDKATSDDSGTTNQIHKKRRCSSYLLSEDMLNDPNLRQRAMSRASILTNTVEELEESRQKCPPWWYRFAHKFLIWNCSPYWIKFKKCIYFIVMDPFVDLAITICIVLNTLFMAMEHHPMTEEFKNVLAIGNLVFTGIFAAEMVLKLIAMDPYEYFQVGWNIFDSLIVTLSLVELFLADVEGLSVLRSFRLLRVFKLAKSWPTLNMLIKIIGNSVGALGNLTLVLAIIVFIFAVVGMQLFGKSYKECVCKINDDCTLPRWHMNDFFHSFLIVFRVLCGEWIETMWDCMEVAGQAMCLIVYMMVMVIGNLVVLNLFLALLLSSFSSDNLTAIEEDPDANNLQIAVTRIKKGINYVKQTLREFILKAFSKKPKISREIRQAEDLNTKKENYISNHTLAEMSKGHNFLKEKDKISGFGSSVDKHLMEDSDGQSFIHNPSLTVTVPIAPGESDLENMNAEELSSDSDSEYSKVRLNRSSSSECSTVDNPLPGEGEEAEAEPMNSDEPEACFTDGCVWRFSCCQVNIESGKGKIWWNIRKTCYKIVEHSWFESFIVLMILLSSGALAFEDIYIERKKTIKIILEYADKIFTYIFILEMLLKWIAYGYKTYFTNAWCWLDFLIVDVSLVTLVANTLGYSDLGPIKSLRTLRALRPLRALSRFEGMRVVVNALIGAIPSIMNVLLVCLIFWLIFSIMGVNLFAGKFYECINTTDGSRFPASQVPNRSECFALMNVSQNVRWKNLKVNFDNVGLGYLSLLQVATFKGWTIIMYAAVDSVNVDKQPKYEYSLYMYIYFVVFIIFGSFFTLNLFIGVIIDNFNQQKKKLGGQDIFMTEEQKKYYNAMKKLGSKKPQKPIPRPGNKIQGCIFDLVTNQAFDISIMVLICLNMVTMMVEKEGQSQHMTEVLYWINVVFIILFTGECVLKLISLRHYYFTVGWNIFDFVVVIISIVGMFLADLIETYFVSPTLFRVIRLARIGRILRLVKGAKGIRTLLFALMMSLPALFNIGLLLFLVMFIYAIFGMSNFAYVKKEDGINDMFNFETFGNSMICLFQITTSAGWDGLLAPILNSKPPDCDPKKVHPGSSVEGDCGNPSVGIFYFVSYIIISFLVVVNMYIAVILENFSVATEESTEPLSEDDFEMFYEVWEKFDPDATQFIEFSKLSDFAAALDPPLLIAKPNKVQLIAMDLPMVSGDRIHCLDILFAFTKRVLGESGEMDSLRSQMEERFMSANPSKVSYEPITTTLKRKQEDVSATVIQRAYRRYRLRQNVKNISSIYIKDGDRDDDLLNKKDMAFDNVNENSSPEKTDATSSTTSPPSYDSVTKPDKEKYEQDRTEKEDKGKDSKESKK

**Q.** For C=CCc1ccc(O)c(OC)c1 [eugenol], which “Binding to voltage-gated sodium channels” value (Nav 1.7) is on record?
**A.** The value was “preferentially binds to such channels in the inactivated state”.

**Q.** What about the “Fish in which the EOD amplitude collapsed to markedly lower levels” value ([1]; 60 μL/L eugenol, 5 min) of the same compound?
**A.** Its value is 4 out of 8.

**Q.** And the “Time after end of exposure at which EOD amplitude reached baseline levels” value ([1]; eugenol, FIG. 19 recording)?
**A.** Its value is “approximately 6 min”.

**Q.** What about the “Time after onset of anesthesia at which the fish's movements ceased (jittering of EOD amplitude minimal)” value ([1]; eugenol, FIG. 19 recording) of the same compound?
**A.** The value was “Approximately 1.5 min”.

**Q.** And the “Effect on GABAA-receptor response” value (GABAA receptors)?
**A.** Its value is “potentiate GABAA-receptor response”.

**Q.** And the “Effect on GABA-induced current” value [2]?
**A.** The value was “inhibits GABAA current in a reversible, dose-dependent manner”.

— patent US20240207454A1, “NEURO-BEHAVIORAL ASSAY FOR PHYSIOLOGICAL EVALUATION OF WATER-SOLUBLE ANESTHETICS” (Northeastern University, priority 2022, published 2024)
